# Target: SARS-CoV-2 M^pro (Severe acute respiratory syndrome coronavirus 2, UniProt P0DTD1)
# Type: binding
# Details: pH 6.8
compound,measurement,value
CCN(CC)c1ccc2c(-c3ccccc3C(=O)O)c3ccc(=[N+](CC)CC)cc-3oc2c1 [rhodamine B],"Fluorescent labeling of M^pro (gel, UV 365 nm)",could not label M^pro
